Measured values as given in US9169217B2, “Arylalkyl esters of 4-amino-6-(substituted phenyl)-picolinates and 6-amino-2-(substituted phenyl)-pyrimidinecarboxylates and their use as selective herbicides for crops” (Dow AgroSciences LLC, priority 2011, dated 2015).

Columns and labels:
Assay type in all cases: in vivo
[1] = system: Cirsium arvense (Thistle, Canada); assay: Postemergence herbicidal activity in cereal crops (Example 14); details: wheat cropping systems, postemergence spray, 21 DAA
Protocol: (§1) Seeds of the desired test plant species were planted in Sun Gro Metro-Mix® 360 planting mixture, which typically has a pH of 6.0 to 6.8 and an organic matter content of about 30 percent, in plastic pots with a surface area of 84.6 cm^2. When required to ensure good germination and healthy plants, a fungicide treatment and/or other chemical or physical treatment was applied. The plants were grown for 7-36 d in a greenhouse with an approximate 14 h photoperiod which was maintained at about 18° C. during the day and 17° C. during the night. Nutrients and water were added on a regular basis and supplemental lighting was provided with overhead metal halide 1000-Watt lamps as necessary. The plants were employed for testing when they reached the second or third true leaf stage.
(§2) Treatments consisted of esters of compounds 33, 34, 39, 40 and 42 and B, F, G and H. Compound B is methyl 4-amino-3-chloro-6-(4-cyclopropylphenyl)-5-fluoropicolinate; compound F is methyl 6-amino-2-(4-chloro-2-fluoro-3-methoxyphenyl)-5-methoxypyrimidine-4-carboxylate; compound G is methyl 4-amino-3-chloro-6-(4-chloro-2-fluoro-3-methoxyphenyl)picolinate; and compound H is methyl 4-amino-3-chloro-6-(4-chloro-2-fluoro-3-(1-fluoroethyl)phenyl)-5-fluoropicolinate. A weighed amount, determined by the highest rate to be tested, of each test compound was placed in a 25 mL glass vial and was dissolved in 8 mL of a 97:3 v/v mixture of acetone and DMSO to obtain concentrated stock solutions. […] The concentrated stock solutions obtained were diluted with 16 mL of an aqueous mixture containing acetone, water, isopropyl alcohol, DMSO, Agri-dex crop oil concentrate, and Triton® X-77 surfactant in a 64.7:26.0:6.7:2.0:0.7:0.01 v/v ratio to obtain spray solutions containing the highest application rates. Additional application rates were obtained by serial dilution of 12 mL of the high rate solution into a solution containing 4 mL of a 97:3 v/v mixture of acetone and DMSO and 8 mL of an aqueous mixture containing acetone, water, isopropyl alcohol, DMSO, Agri-dex crop oil concentrate, and Triton® X-77 surfactant in a 48.5:39.0:10.0:1.5:1.0:0.02 v/v ratio to obtain ½×, ¼×, ⅛× and 1/16× rates of the high rate. Compound requirements are based upon a 12 mL application volume at a rate of 187 L/ha. Formulated compounds were applied to the plant material with an overhead Mandel track sprayer equipped with 8002E nozzles calibrated to deliver 187 L/ha over an application area of 0.503 m^2 at a spray height of 18 inches (43 cm) above average plant canopy height. Control plants were sprayed in the same manner with the blank.
(§3) The treated plants and control plants were placed in a greenhouse as described above and watered by sub-irrigation to prevent wash-off of the test compounds. After 20-22 d, the condition of the test plants as compared with that of the untreated plants was determined visually and scored on a scale of 0 to 100 percent where 0 corresponds to no injury and 100 corresponds to complete kill.

Kochia scoparia (Kochia) = assay: as above; details: wheat cropping systems, postemergence spray, 35 g ae/ha, 21 DAA
Protocol: as §1, §2, §3

[2] = system: Salsola kali (Thistle, Russian); assay: as above; details: wheat cropping systems, postemergence spray, 35 g ae/ha, 21 DAA
Protocol: as §1, §2, §3

Oryza sativa (Rice) = assay: General postemergence herbicidal activity (Example 13); details: post-emergent spray, 70 g ai/ha, 14 DAA; crop (rice)
Protocol: (§4) Seeds or nutlets of the desired test plant species were planted in Sun Gro Metro-Mix® 360 planting mixture, which typically has a pH of 6.0 to 6.8 and an organic matter content of about 30 percent, in plastic pots with a surface area of 84.6 square centimeters (cm^2). When required to ensure good germination and healthy plants, a fungicide treatment and/or other chemical or physical treatment was applied. The plants were grown for 7-31 days (d) in a greenhouse with an approximate 15 hour (h) photoperiod which was maintained at about 23-29° C. during the day and 22-28° C. during the night. Nutrients and water were added on a regular basis and supplemental lighting was provided with overhead metal halide 1000-Watt lamps as necessary. The plants were employed for testing when they reached the first or second true leaf stage.
(§5) Treatments consisted of esters of compounds 33 and 39 and F and G. Compound F is methyl 6-amino-2-(4-chloro-2-fluoro-3-methoxyphenyl)-5-methoxypyrimidine-4-carboxylate; and compound G is methyl 4-amino-3-chloro-6-(4-chloro-2-fluoro-3-methoxyphenyl)picolinate. A weighed amount, determined by the highest rate to be tested, of each test compound was placed in a 25 mL glass vial and was dissolved in 4 mL of a 97:3 v/v (volume/volume) mixture of acetone and dimethyl sulfoxide (DMSO) to obtain concentrated stock solutions. […] The concentrated stock solutions obtained were diluted with 20 mL of an aqueous mixture containing acetone, water, isopropyl alcohol, DMSO, Atplus 411F crop oil concentrate, and Triton® X-155 surfactant in a 48.5:39:10:1.5:1.0:0.02 v/v ratio to obtain spray solutions containing the highest application rates. Additional application rates were obtained by serial dilution of 12 mL of the high rate solution into a solution containing 2 mL of a 97:3 v/v (volume/volume) mixture of acetone and DMSO and 10 mL of an aqueous mixture containing acetone, water, isopropyl alcohol, DMSO, Atplus 411F crop oil concentrate, and Triton® X-155 surfactant in a 48.5:39:10:1.5:1.0:0.02 v/v ratio to obtain ½×, ¼×, ⅛× and 1/16× rates of the high rate. Compound requirements are based upon a 12 mL application volume at a rate of 187 liters per hectare (L/ha). Formulated compounds were applied to the plant material with an overhead Mandel track sprayer equipped with 8002E nozzles calibrated to deliver 187 L/ha over an application area of 0.503 square meters (m^2) at a spray height of 18 inches (43 cm) above the average plant canopy height. Control plants were sprayed in the same manner with the solvent blank.
as §3, with “14” for “20-22”

[3] = system: Stellaria media (Chickweed, common); assay: as above; details: post-emergent spray, 70 g ai/ha, 14 DAA
Protocol: as §4, §5
as §3, with “14” for “20-22”

[4] = system: Triticum aestivum (Wheat, spring); assay: as above; details: post-emergent spray, 70 g ai/ha, 14 DAA; crop (spring wheat)
Protocol: as §4, §5
as §3, with “14” for “20-22”

[5] = system: Viola tricolor (Pansy, wild); assay: as above; details: post-emergent spray, 70 g ai/ha, 14 DAA
Protocol: as §4, §5
as §3, with “14” for “20-22”

[6] = system: Lolium multiflorum (Ryegrass, Italian); assay: Postemergence herbicidal activity in cereal crops (Example 14); details: wheat cropping systems, postemergence spray, 17.5 g ae/ha, 21 DAA
Protocol: as §1, §2, §3

[7] = system: Setaria viridis (Foxtail, green); assay: as above; details: wheat cropping systems, postemergence spray, 17.5 g ae/ha, 21 DAA
Protocol: as §1, §2, §3

Structure (SMILES) | Visual Injury (%) CIRAR ([1]; 8.75 g ae/ha) | Visual Injury (%) CIRAR ([1]; 17.5 g ae/ha) | Visual Injury (%) KCHSC (Kochia scoparia (Kochia)) | Visual Injury (%) SASKR [2] | Visual Injury (%) ORYSA (Oryza sativa (Rice)) | Visual Injury (%) STEME [3] | Visual Injury (%) TRZAS [4] | Visual Injury (%) VIOTR [5] | Visual Injury (%) LOLMU [6] | Visual Injury (%) SETVI [7]
COc1c(Cl)ccc(-c2cc(N)c(Cl)c(C(=O)OCc3ccccc3)n2)c1F [Compound 39] | 90% | 95% | 95% | 90% |  |  |  |  |  | 
COC(=O)c1nc(-c2ccc(Cl)c(OC)c2F)nc(N)c1OC [Compound F, methyl 6-amino-2-(4-chloro-2-fluoro-3-methoxyphenyl)-5-methoxypyrimidine-4-carboxylate, reference compound] |  |  |  |  | 75% | 90% | 70% | 80% | 60% | 85%
COC(=O)c1nc(-c2ccc(Cl)c(OC)c2F)cc(N)c1Cl [Compound G, methyl 4-amino-3-chloro-6-(4-chloro-2-fluoro-3-methoxyphenyl)picolinate, reference compound] | 70% | 80% | 87% | 80% |  |  |  |  |  | 
